We go through 15 compounds from US8148422B2, “Sulfonamides as TRPM8 modulators” (Janssen Pharmaceutica, NV, priority 2008, dated 2012).

Where two headings read alike, the source gives them in different places.

One assay concerns the target T1, canine TRPM8 (Canis lupus familiaris, UniProt Q1A7N1).
T1 construct: expressed in transfected cells
Kind of assay: In vitro canine TRPM8 functional assay (Ca2+-sensitive fluorescent dye, FLIPR or FDSS, icilin challenge). Conditions: for inhibition at 0.2 µM: 0.2 μM compound. It is filed as cell-based. The gist of the method: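 Cells (HEK293, stable canine TRPM8) are seeded 24 h before assay. They are then dye-loaded with Calcium 3 at 37 °C followed by room temperature. Compound is added and monitored for 5 min, after which icilin (~80% maximal response) is added.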

Assay [1] concerns icilin-induced "wet-dog" shakes (WDS). Description: Inhibition of icilin-induced "wet-dog" shakes in rats. The class given is in vivo. The settings on record: HCl salt, 10 mpk PO, vehicle HPbCD; male Sprague Dawley rats; [1-(test compound WDS count/vehicle WDS count)]x100. The method, then:
Male Sprague Dawley rats (220-450 g, Charles River Labs, n=6-9/treatment) were used to evaluate the ability of compounds selected from the group consisting of formula (I) and formula (II) to block icilin-induced “wet-dog” shakes (WDS). Compounds selected from the group consisting of formula (I) and formula (II) were administered in an appropriate vehicle, such as hydroxypropyl-β-cyclodextrin (HPβCD), methocellulose, 10% Solutol, or H2O, or the like, by the appropriate route, i.p. or p.o., 30-120 minutes before icilin. Icilin was administered in PEG-400 or 10% solutol/H2O, at 1.0 or 3.0 mg/kg, i.p. and spontaneous “wet-dog” shakes were counted 10-20 minutes post-icilin. Results are presented as a percent inhibition of shakes, which was calculated as [1−(test compound WDS count/vehicle WDS count)]×100.

[2] abbreviates: HEK293 cells stably expressing canine TRPM8, icilin challenge.
Where [3] appears, read: HEK293 cells stably expressing canine TRPM8, icilin at approx. 80% maximal response, eight-point dose-response, single determinations unless otherwise noted, read-out: IC50.

T1 sequence (Q1A7N1 1-1104): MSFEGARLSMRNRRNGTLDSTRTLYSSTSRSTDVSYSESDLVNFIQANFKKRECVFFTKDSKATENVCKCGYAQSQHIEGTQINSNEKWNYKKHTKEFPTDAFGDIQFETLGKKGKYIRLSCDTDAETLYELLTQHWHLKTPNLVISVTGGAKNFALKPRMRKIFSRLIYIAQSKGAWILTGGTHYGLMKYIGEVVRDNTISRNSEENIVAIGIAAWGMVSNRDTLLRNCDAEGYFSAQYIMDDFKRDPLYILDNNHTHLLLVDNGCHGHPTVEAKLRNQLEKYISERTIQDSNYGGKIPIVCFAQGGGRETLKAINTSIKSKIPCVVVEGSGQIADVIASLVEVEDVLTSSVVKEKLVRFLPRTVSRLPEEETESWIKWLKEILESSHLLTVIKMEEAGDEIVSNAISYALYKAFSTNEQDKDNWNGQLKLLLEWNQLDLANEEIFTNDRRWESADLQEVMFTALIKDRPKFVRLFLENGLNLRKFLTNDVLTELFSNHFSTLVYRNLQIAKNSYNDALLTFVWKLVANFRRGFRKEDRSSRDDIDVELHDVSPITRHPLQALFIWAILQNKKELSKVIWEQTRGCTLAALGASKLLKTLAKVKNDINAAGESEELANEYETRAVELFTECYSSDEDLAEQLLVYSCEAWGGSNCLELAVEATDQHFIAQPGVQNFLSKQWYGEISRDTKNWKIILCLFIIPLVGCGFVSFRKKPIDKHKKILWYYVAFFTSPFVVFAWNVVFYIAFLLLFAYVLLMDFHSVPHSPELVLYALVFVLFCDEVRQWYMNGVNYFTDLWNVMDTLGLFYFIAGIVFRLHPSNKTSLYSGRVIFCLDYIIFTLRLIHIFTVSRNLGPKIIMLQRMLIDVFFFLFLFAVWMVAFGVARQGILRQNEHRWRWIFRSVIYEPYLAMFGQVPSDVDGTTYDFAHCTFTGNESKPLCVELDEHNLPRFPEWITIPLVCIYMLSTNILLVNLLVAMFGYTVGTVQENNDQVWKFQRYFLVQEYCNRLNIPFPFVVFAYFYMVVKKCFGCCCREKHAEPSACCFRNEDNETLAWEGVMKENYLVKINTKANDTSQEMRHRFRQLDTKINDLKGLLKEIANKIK

For the compound `Cc1c(N(CCC2CC2)S(=O)(=O)CCN(CC(C)C)CC(C)C)sc2ccccc12` [Cpd 74, N-(3-Methylbenzo[b]thiophen-2-yl)-N-(2-cyclopropyl-ethyl)-2-(diisobutylamino)ethylsulfonamide], the inhibition at 0.2 µM against canine TRPM8 (setting [2]) was found to be 100%. Besides, the IC50 at canine TRPM8 (setting [3]) was 17 nM. In assay [1], the “% Inhibition (of wet-dog shakes)” value came to 26%.
With `Cc1c(N(Cc2ccc(OC(F)(F)F)cc2)S(=O)(=O)CCN2CCC(c3ccccc3)CC2)sc2ccccc12` [Cpd 25, N-(3-Methylbenzo[b]thiophen-2-yl)-N-(4-trifluoromethoxy-benzyl)-2-(4-phenylpiperidin-1-yl)ethylsulfonamide], the IC50 against canine TRPM8 stood at 29 nM; on canine TRPM8 (IC50, determination of HCl salt, HEK293 cells stably expressing canine TRPM8, icilin challenge), 26 nM. The inhibition at 0.2 µM against canine TRPM8 (setting [2]) and at canine TRPM8 (determination of HCl salt) was 100% throughout. In assay [1], the “% Inhibition (of wet-dog shakes)” value came out at 12.7%.
With `Cc1c(N(Cc2ccc(OC(F)(F)F)cc2)S(=O)(=O)CCN(CC(C)C)CC(C)C)sc2ccccc12` [Cpd 16, N-(3-Methylbenzo[b]thiophen-2-yl)-N-(4-trifluoromethoxy-benzyl)-2-(diisobutylamino)ethylsulfonamide], the inhibition at 0.2 µM at canine TRPM8 (setting [2]) was determined as 101%. In addition, the IC50 on canine TRPM8 (setting [3]) came to 6 nM. Moreover, the “% Inhibition (of wet-dog shakes)” value in assay [1] was 0%.
In the same order, the values of `Cc1c(N(CCCCC(F)(F)F)S(=O)(=O)CCN(CC(C)C)CC(C)C)sc2ccccc12` [Cpd 78, N-(3-Methylbenzo[b]thiophen-2-yl)-N-(5,5,5-trifluoro-n-pent-1-yl)-2-(di-iso-butylamino)ethylsulfonamide] are 100%, 18 nM and 3%.
In the same order, the values of `Cc1c(N(Cc2ccc(F)c(F)c2)S(=O)(=O)CCN(CC(C)C)CC(C)C)sc2ccccc12` [Cpd 80, N-(3-Methylbenzo[b]thiophen-2-yl)-N-(3,4-difluoro-benzyl)-2-(di-iso-butylamino)ethylsulfonamide] are 100%, 26 nM and 0%.
`CCCN(CCC)CCS(=O)(=O)N(Cc1ccc(OC(F)(F)F)cc1)c1cc2ccccc2s1` [Cpd 1, N-(Benzo[b]thiophen-2-yl)-N-(4-trifluoromethoxy-benzyl)-2-(di-propylamino)ethylsulfonamide]: on canine TRPM8 (setting [2]), the inhibition at 0.2 µM worked out at 78%. The IC50 on canine TRPM8 (setting [3]) is 114 nM.
The matching figures for `Cc1c(N(Cc2ccc(F)c(C(F)(F)F)c2)S(=O)(=O)CCN2CCCC(F)(F)C2)sc2ccccc12` [Cpd 70, N-(3-Methylbenzo[b]thiophen-2-yl)-N-(4-fluoro-3-trifluoromethyl-benzyl)-2-(3,3-difluoropiperidin-1-yl)ethylsulfonamide]: 100% and 4 nM.
In the same order, the values of `CCCN(CCC)CCS(=O)(=O)N(Cc1ccc(OC(F)(F)F)cc1)c1sc2ccccc2c1Cl` [Cpd 4, N-(3-Chlorobenzo[b]thiophen-2-yl)-N-(4-trifluoromethoxy-benzyl)-2-(di-propylamino)ethylsulfonamide] are 98% and 24 nM.
The matching figures for `CCCN(CCC)CCS(=O)(=O)N(Cc1ccc(OC(F)(F)F)cc1)c1sc2ccccc2c1C` [Cpd 6, N-(3-Methylbenzo[b]thiophen-2-yl)-N-(4-trifluoromethoxy-benzyl)-2-(di-propylamino)ethylsulfonamide]: 99% and 9 nM.
As to `Cc1c(N(Cc2ccc(OC(F)(F)F)cc2)S(=O)(=O)CCN2CCSCC2)sc2ccccc12` [Cpd 34, N-(3-Methylbenzo[b]thiophen-2-yl)-N-(4-trifluoromethoxy-benzyl)-2-(thiomorpholin-4-yl)ethylsulfonamide], the inhibition at 0.2 µM against canine TRPM8 (setting [2]) is 100%. Further, the IC50 at canine TRPM8 (setting [3]) turned out to be 7 nM.
As to `Cc1c(N(Cc2ccc(OC(F)(F)F)cc2)S(=O)(=O)CCN(C)Cc2ccccc2)sc2ccccc12` [Cpd 14, N-(3-Methylbenzo[b]thiophen-2-yl)-N-(4-trifluoromethoxy-benzyl)-2-(benzyl-methylamino)ethylsulfonamide], at canine TRPM8 (setting [2]), the inhibition at 0.2 µM was 102%. For the same compound, the IC50 on canine TRPM8 (setting [3]) turned out to be 16 nM. Further, the “% Inhibition (of wet-dog shakes)” value in assay [1] was found to be 0%.
`Cc1c(N(Cc2ccc(OC(F)(F)F)cc2)S(=O)(=O)CCN2C[C@@H](C)O[C@@H](C)C2)sc2ccccc12` [Cpd 33, N-(3-Methylbenzo[b]thiophen-2-yl)-N-(4-trifluoromethoxy-benzyl)-2-(cis-2,6-dimethylmorpholin-4-yl)ethylsulfonamide]: the inhibition at 0.2 µM against canine TRPM8 (setting [2]) was 100%. The IC50 at canine TRPM8 (setting [3]) was 24 nM.
In the same order, the values of `Cc1c(N(Cc2ccc(OC(F)(F)F)cc2)S(=O)(=O)CCN2CCC[C@H]2C(F)(F)F)sc2ccccc12` [Cpd 71, N-(3-Methylbenzo[b]thiophen-2-yl)-N-(4-trifluoromethoxy-benzyl)-2-[2(S)-trifluoromethyl-pyrrolidin-1-yl]ethylsulfonamide] are 100% and 4 nM.
In the same order, the values of `Cc1c(N(Cc2ccc(OC(F)(F)F)cc2)S(=O)(=O)CCN2CCCC(F)(F)C2)sc2ccccc12` [Cpd 43, N-(3-Methylbenzo[b]thiophen-2-yl)-N-(4-trifluoromethoxy-benzyl)-2-(3,3-difluoropiperidin-1-yl)ethylsulfonamide] are 101% and 5 nM.
In the case of `Cc1c(N(CCC2CC2)S(=O)(=O)CCN2CCC(C(=O)O)CC2)sc2ccccc12` [Cpd 87, N-(3-Methylbenzo[b]thiophen-2-yl)-N-(2-cyclopropylethyl)-2-(4-carboxypiperidin-1-yl)ethylsulfonamide], at canine TRPM8 (setting [2]), the inhibition at 0.2 µM was 29%.
